Common to all, as to type: functional
Test [1] concerns Onchocerca lienalis. As to the kind of experiment: MMV: Percent motility assay at a compound concentration of 1.9e-7 M. Activity score legend: 3: Active, 2: Moderately active; 1: Inactive, 0: Toxic. Particulars: at 0.19 µM.
In test [2] the test system is Onchocerca lienalis. The experiment in a line: MMV: Percent motility assay at a compound concentration of 7.8e-7 M. Activity score legend: 3: Active, 2: Moderately active; 1: Inactive, 0: Toxic. The settings on record: at 0.78 µM.
Test [3] deals with Onchocerca lienalis. As to the kind of experiment: MMV: Percent motility assay at a compound concentration of 1.25e-5 M. Activity score legend: 3: Active, 2: Moderately active; 1: Inactive, 0: Toxic. Particulars: at 12.5 µM.
The test system of test [4] is Onchocerca lienalis. As to the kind of experiment: MMV: Percent motility assay at a compound concentration of 3.1e-6 M. Activity score legend: 3: Active, 2: Moderately active; 1: Inactive, 0: Toxic. The settings on record: at 3.1 µM.

With `CCOC(=O)C1=C(C)N=c2sc(=Cc3ccccc3O)c(=O)n2C1c1ccc(OC)c2ccccc12` (stereo not given), the Motility in test [1], in test [2], in test [3] and in test [4] was 100% in each case.

Regarding `CCOC(=O)C1=C(C)N=c2sc(=Cc3cc(Cl)ccc3O)c(=O)n2C1c1ccc(OC)cc1` (stereo not given), the Motility in test [1], in test [2], in test [3] and in test [4] was 100% throughout.

Turning to `FC(F)(F)c1cccc(Nc2nc3ccccc3nc2Nc2cccc(C(F)(F)F)c2)c1`, the Motility in test [1], in test [2], in test [3] and in test [4] was 100% throughout.

Consider `Cc1ccnc(NC(c2cccc(OCc3ccccc3)c2)c2ccc3cccnc3c2O)c1` (stereo not given), for which the Motility in test [1], in test [2], in test [3] and in test [4] was 100% throughout.

For the molecule `Nc1ccc(-c2nc3cc(Cc4ccc5[nH]c(-c6ccc(N)cc6)nc5c4)ccc3[nH]2)cc1`, the Motility in test [1] came to 100%; in test [2] it was 100%; in test [3], 0%; in test [4] it was 66.66%.

In the case of `CCCCOC(=O)c1ccc(Nc2cc(C)nc3ccc(OC)cc23)cc1`, the Motility in test [1], in test [2], in test [3] and in test [4] was 100% in each case.

For `O=c1cc(NC2CCN(CCCc3ccccc3)CC2)c2cc(Cl)ccc2o1`, the Motility in test [1], in test [2], in test [3] and in test [4] was 100% throughout.

Regarding `CCOc1ccc(-n2cc(-c3ccccc3)c3c(SCc4cc(C)ccc4C)ncnc32)cc1`, the Motility in test [1], in test [2], in test [3] and in test [4] was 100% each time.

On to `CC1CCN(Cc2c(O)ccc3cc(-c4nc5ccccc5s4)c(=O)oc23)CC1`, for which the Motility in test [1], in test [2], in test [3] and in test [4] was 100% each time.

Turning to `Cc1ccc2cc3c(N)c4c(C)ccc(C)c4nc3nc2c1`, the Motility in test [1], in test [2], in test [3] and in test [4] was 100% throughout.

Consider `CC(C)CCNCC(O)Cn1c2ccccc2c2ccccc21.Cl` (stereo not given), for which the Motility in test [1], in test [2], in test [3] and in test [4] was 100% each time.

Regarding `COc1ccc(C2C(C(=O)Nc3cccc(OC)c3)c3ccccc3C(=O)N2C2CCCCC2)cc1` (stereo not given), the Motility in test [1], in test [2], in test [3] and in test [4] was 100% throughout.

In the case of `c1ccc2c(NCCc3c[nH]c4ccccc34)c3ccccc3nc2c1`, the Motility in test [1], in test [2], in test [3] and in test [4] was 100% throughout.

Turning to `O=C(Nc1ccc(C23CC4CC(CC(c5ccccc5)(C4)C2)C3)cc1)c1cccs1`, the Motility in test [1], in test [2], in test [3] and in test [4] was 100% throughout.

Take `CCOC(=O)c1cnc2c(C)cccc2c1Nc1ccc(C(C)=O)cc1`: the Motility in test [1], in test [2], in test [3] and in test [4] was 100% in each case.

Consider `Cc1ccc(C2CC(C(F)(F)F)n3nc(C(=O)N4CCN(C(c5ccccc5)c5ccccc5)CC4)cc3N2)cc1` (stereo not given), for which the Motility in test [1], in test [2], in test [3] and in test [4] was 100% each time.

For the molecule `Cc1ccc2nc(C)cc(Nc3cccc(C(F)(F)F)c3)c2c1.Cl`, the Motility in test [1], in test [2], in test [3] and in test [4] was 100% each time.

As to `COc1cccc(C(=O)NC(c2ccc(C)cc2)c2cc(Cl)c3cccnc3c2O)c1` (stereo not given), the Motility in test [1] is 100%; in test [2], 100%; in test [3], 0%; in test [4] it was 33.33%.

`COc1ccc(-c2cc(=O)oc3c4c(ccc23)OCN(Cc2ccc(F)cc2)C4)cc1`: the Motility in test [1], in test [2], in test [3] and in test [4] was 100% in each case.

Take `CCOc1ccc2c(c1)CN(Cc1ccc(Cl)cc1)CO2`: the Motility in test [1], in test [2], in test [3] and in test [4] was 100% each time.

`CCCCC(O)(c1ccc(Cl)cc1)C(CN1CCOCC1)c1ccc(Cl)cc1.Cl` (stereo not given): the Motility in test [1], in test [2], in test [3] and in test [4] was 100% throughout.

Take `Cc1cc(=O)oc2c1ccc1oc(C(=O)c3ccccc3)c(C)c12`: the Motility in test [1], in test [2], in test [3] and in test [4] was 100% throughout.

For `COc1ccc2c(c1OC)C(=O)N1c3ccccc3N=C(c3ccc(C)cc3)CC21` (stereo not given), the Motility in test [1], in test [2], in test [3] and in test [4] was 100% throughout.

In the case of `CCCCCCc1cc(O)c2c3c(c(=O)oc2c1)CCC(C)C3` (stereo not given), the Motility in test [1], in test [2], in test [3] and in test [4] was 100% in each case.

As to `CCCc1c(C)nc2ccc(Br)cc2c1O`, the Motility in test [1], in test [2], in test [3] and in test [4] was 100% throughout.

Consider `COc1ccc(CCNC(=O)c2cc(S(=O)(=O)N3CC(C)CC(C)C3)ccc2Sc2ccc(F)cc2)cc1OC` (stereo not given), for which the Motility in test [1], in test [2], in test [3] and in test [4] was 100% in each case.

As to `CCOc1ccc(Nc2c3ccccc3nc3ccccc23)cc1.Cl`, the Motility in test [1], in test [2], in test [3] and in test [4] was 100% throughout.

With `CC1=C(CC(=O)c2cccc([N+](=O)[O-])c2)C(=O)c2ccccc2C1=O`, the Motility in test [1], in test [2], in test [3] and in test [4] was 100% each time.

As for `COc1ccc(C)c2sc(N(Cc3cccnc3)C(=O)c3ccc(C#N)cc3)nc12`, the Motility in test [1], in test [2], in test [3] and in test [4] was 100% each time.

With `COc1ccccc1N1C(=N)SC(=Cc2ccc(OCc3ccccc3F)cc2)C1=O`, the Motility in test [1], in test [2], in test [3] and in test [4] was 100% throughout.

The values are drawn from ChEMBL document CHEMBL3137381, “MMV Box Onchocerca lienalis screening set”.
